Results: PubChem BioAssay AID256 (DTP/NCI, 2004)
Where “and” joins values, the source holds several entries; their conditions need not be identical. Identical values can stand only once. Inconclusive results and toxic doses are left out.

Test system: CD2F1 mice, L1210 leukemia ip, survival T/C
Experiment: NCI In Vivo Anticancer Drug Screen. Data for tumor model L1210 Leukemia (intraperitoneal) in CD2F1 (CDF1) mice
Settings: higher = longer survival
Method in brief: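 Each value reflects a quotient of treated over vehicle control outcomes in mice with a transplanted tumor.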

[1] = endpoint: mean survival time, dose: 50.0 mg/kg/injection, schedule: Q04DX002 (ip), vehicle: saline with Tween-80
[2] = endpoint: mean survival time, dose: 100.0 mg/kg/injection, schedule: Q04DX002 (ip), vehicle: saline with Tween-80
[3] = endpoint: mean survival time, dose: 100.0 mg/kg/injection, schedule: Q04DX003 (ip), vehicle: saline with Tween-80
[4] = endpoint: mean survival time, dose: 200.0 mg/kg/injection, schedule: Q04DX002 (ip), vehicle: saline with Tween-80

## CSc1ncnc2c1ncn2C1OC(CO)C(O)C1O (stereo not given)
endpoint: mean survival time, dose: 4.0 mg/kg/injection, schedule: Q01DX009 (ip), vehicle: saline
  T/C: 118 % of control
endpoint: mean survival time, dose: 5.0 mg/kg/injection, schedule: Q01DX005 (ip), vehicle: saline
  T/C: 118 % of control and 124 % of control
endpoint: mean survival time, dose: 5.0 mg/kg/injection, schedule: Q01DX007 (ip), vehicle: saline
  T/C: 110 % of control
endpoint: mean survival time, dose: 5.0 mg/kg/injection, schedule: Q01DX009 (ip), vehicle: saline
  T/C: 114 % of control
endpoint: mean survival time, dose: 5.0 mg/kg/injection, schedule: Q03DX003 (ip), vehicle: saline
  T/C: 115 % of control
endpoint: mean survival time, dose: 5.0 mg/kg/injection, schedule: Q04DX003 (ip), vehicle: saline
  T/C: 103 % of control
endpoint: mean survival time, dose: 10.0 mg/kg/injection, schedule: Q01DX007 (ip), vehicle: saline
  T/C: 116 % of control
endpoint: mean survival time, dose: 10.0 mg/kg/injection, schedule: Q01DX009 (ip), vehicle: saline
  T/C: 121 % of control
endpoint: mean survival time, dose: 10.0 mg/kg/injection, schedule: Q03DX003 (ip), vehicle: saline
  T/C: 122 % of control
endpoint: mean survival time, dose: 10.0 mg/kg/injection, schedule: Q04DX003 (ip), vehicle: saline
  T/C: 112 % of control
endpoint: mean survival time, dose: 12.5 mg/kg/injection, schedule: Q01DX009 (ip), vehicle: saline
  T/C: 150 % of control
endpoint: mean survival time, dose: 20.0 mg/kg/injection, schedule: Q01DX005 (ip), vehicle: saline
  T/C: 154 % of control
endpoint: mean survival time, dose: 20.0 mg/kg/injection, schedule: Q04DX003 (ip), vehicle: saline
  T/C: 114 % of control
endpoint: mean survival time, dose: 25.0 mg/kg/injection, schedule: Q01DX001 (ip), vehicle: saline
  T/C: 118 % of control
endpoint: mean survival time, dose: 32.0 mg/kg/injection, schedule: Q01DX009 (ip), vehicle: saline
  T/C: 115 % of control
endpoint: mean survival time, dose: 40.0 mg/kg/injection, schedule: Q01DX005 (ip), vehicle: saline
  T/C: 164 % of control and 166 % of control
endpoint: mean survival time, dose: 64.0 mg/kg/injection, schedule: Q01DX009 (ip), vehicle: saline
  T/C: 80 % of control
endpoint: mean survival time, dose: 80.0 mg/kg/injection, schedule: Q01DX005 (ip), vehicle: saline
  T/C: 119 % of control
endpoint: median survival time, dose: 18.0 mg/kg/injection, schedule: Q01DX009 (ip), vehicle: saline
  T/C: 155 % of control
endpoint: median survival time, dose: 27.0 mg/kg/injection, schedule: Q01DX009 (ip), vehicle: saline
  T/C: 170 % of control and 191 % of control
endpoint: median survival time, dose: 30.0 mg/kg/injection, schedule: Q01DX009 (ip), vehicle: saline
  T/C: 158 % of control and 161 % of control
endpoint: median survival time, dose: 35.0 mg/kg/injection, schedule: Q01DX009 (ip), vehicle: saline
  T/C: 183 % of control
endpoint: median survival time, dose: 45.0 mg/kg/injection, schedule: Q01DX009 (ip), vehicle: saline
  T/C: 119 % of control and 108 % of control
endpoint: median survival time, dose: 123.0 mg/kg/injection, schedule: Q01DX001 (ip), vehicle: saline
  T/C: 157 % of control
endpoint: median survival time, dose: 185.0 mg/kg/injection, schedule: Q01DX001 (ip), vehicle: saline with Tween-80
  T/C: 160 % of control
endpoint: median survival time, dose: 185.0 mg/kg/injection, schedule: Q01DX001 (ip), vehicle: saline
  T/C: 151 % of control

## Nc1nc(N)c2c(n1)NCN(Cc1ccc(Cl)cc1Cl)C2
endpoint: mean survival time, dose: 0.75 mg/kg/injection, schedule: Q01DX009 (ip), vehicle: water
  T/C: 105 % of control
endpoint: mean survival time, dose: 1.5 mg/kg/injection, schedule: Q01DX009 (ip), vehicle: water
  T/C: 94 % of control
endpoint: mean survival time, dose: 3.0 mg/kg/injection, schedule: Q01DX009 (ip), vehicle: water
  T/C: 100 % of control
endpoint: mean survival time, dose: 6.0 mg/kg/injection, schedule: Q01DX009 (ip), vehicle: water
  T/C: 100 % of control
endpoint: mean survival time, dose: 12.0 mg/kg/injection, schedule: Q01DX009 (ip), vehicle: water
  T/C: 96 % of control
endpoint: mean survival time, dose: 24.0 mg/kg/injection, schedule: Q01DX009 (ip), vehicle: water
  T/C: 100 % of control
endpoint: mean survival time, dose: 37.5 mg/kg/injection, schedule: Q01DX009 (ip), vehicle: water
  T/C: 96 % of control
endpoint: mean survival time, dose: 75.0 mg/kg/injection, schedule: Q01DX009 (ip), vehicle: water
  T/C: 91 % of control

## O=C(NCC#CCN1CCCC1)Nc1cccc(Cl)c1
endpoint: mean survival time, dose: 12.5 mg/kg/injection, schedule: Q04DX002 (ip), vehicle: saline with Tween-80
  T/C: 102 % of control
endpoint: mean survival time, dose: 25.0 mg/kg/injection, schedule: Q01DX001 (ip), vehicle: saline with Tween-80
  T/C: 92 % of control
endpoint: mean survival time, dose: 25.0 mg/kg/injection, schedule: Q04DX002 (ip), vehicle: saline with Tween-80
  T/C: 95 % of control
endpoint: mean survival time, dose: 50.0 mg/kg/injection, schedule: Q01DX001 (ip), vehicle: saline with Tween-80
  T/C: 106 % of control
[1]
  T/C: 87 % of control
endpoint: mean survival time, dose: 100.0 mg/kg/injection, schedule: Q01DX001 (ip), vehicle: saline with Tween-80
  T/C: 92 % of control and 93 % of control
[2]
  T/C: 98 % of control

## COc1c(O)ccc2c1CCCCC2=O
endpoint: mean survival time, dose: 50.0 mg/kg/injection, schedule: Q01DX009 (ip), vehicle: saline with Tween-80
  T/C: 100 % of control
endpoint: mean survival time, dose: 100.0 mg/kg/injection, schedule: Q01DX009 (ip), vehicle: saline with Tween-80
  T/C: 100 % of control
endpoint: mean survival time, dose: 200.0 mg/kg/injection, schedule: Q01DX009 (ip), vehicle: saline with Tween-80
  T/C: 100 % of control

## c1ccc(N=C2SCCS2)cc1
endpoint: mean survival time, dose: 3.13 mg/kg/injection, schedule: Q01DX001 (ip), vehicle: Klucel (hydroxypropylcellulose) (HPC)
  T/C: 93 % of control
endpoint: mean survival time, dose: 6.25 mg/kg/injection, schedule: Q01DX001 (ip), vehicle: Klucel (hydroxypropylcellulose) (HPC)
  T/C: 97 % of control
endpoint: mean survival time, dose: 12.5 mg/kg/injection, schedule: Q01DX001 (ip), vehicle: Klucel (hydroxypropylcellulose) (HPC)
  T/C: 108 % of control

## CNCC(O)c1ccc(O)c(O)c1.[Pt].c1ccc([PH+](c2ccccc2)c2ccccc2)cc1.c1ccc([PH+](c2ccccc2)c2ccccc2)cc1
endpoint: median survival time, dose: 10.0 mg/kg/injection, schedule: Q04DX003 (ip), vehicle: saline with Tween-80
  T/C: 94 % of control
endpoint: median survival time, dose: 20.0 mg/kg/injection, schedule: Q04DX003 (ip), vehicle: saline with Tween-80
  T/C: 108 % of control
endpoint: median survival time, dose: 40.0 mg/kg/injection, schedule: Q04DX003 (ip), vehicle: saline with Tween-80
  T/C: 109 % of control
endpoint: median survival time, dose: 50.0 mg/kg/injection, schedule: Q04DX003 (ip), vehicle: saline with Tween-80
  T/C: 102 % of control
endpoint: median survival time, dose: 80.0 mg/kg/injection, schedule: Q04DX003 (ip), vehicle: saline with Tween-80
  T/C: 105 % of control
endpoint: median survival time, dose: 100.0 mg/kg/injection, schedule: Q04DX003 (ip), vehicle: saline with Tween-80
  T/C: 101 % of control

## Cc1c(NC(=O)Nc2ccc(C3=NCCCN3)cc2)cccc1NC(=O)Nc1ccc(C2=NCCCN2)cc1
endpoint: mean survival time, dose: 125.0 mg/kg/injection, schedule: Q01DX Z (ip), vehicle: water
  T/C: 162 % of control
endpoint: mean survival time, dose: 250.0 mg/kg/injection, schedule: Q01DX Z (ip), vehicle: water
  T/C: 177 % of control
endpoint: mean survival time, dose: 500.0 mg/kg/injection, schedule: Q01DX Z (ip), vehicle: water
  T/C: 224 % of control

## CC(=O)NC1CC(n2cnc3c(=O)[nH]cnc32)OC1C(C)O (stereo not given)
endpoint: mean survival time, dose: 12.5 mg/kg/injection, schedule: Q01DX005 (ip), vehicle: water
  T/C: 101 % of control
endpoint: mean survival time, dose: 25.0 mg/kg/injection, schedule: Q01DX005 (ip), vehicle: water
  T/C: 98 % of control
endpoint: mean survival time, dose: 50.0 mg/kg/injection, schedule: Q01DX005 (ip), vehicle: water
  T/C: 101 % of control
endpoint: mean survival time, dose: 100.0 mg/kg/injection, schedule: Q01DX005 (ip), vehicle: water
  T/C: 98 % of control
endpoint: mean survival time, dose: 200.0 mg/kg/injection, schedule: Q01DX005 (ip), vehicle: water
  T/C: 92 % of control

## O=c1cc(NCCCCCc2ccccc2)[nH]c(=O)[nH]1
endpoint: mean survival time, dose: 37.5 mg/kg/injection, schedule: Q01DX001 (ip), vehicle: saline with Tween-80
  T/C: 96 % of control
endpoint: mean survival time, dose: 75.0 mg/kg/injection, schedule: Q01DX001 (ip), vehicle: saline with Tween-80
  T/C: 100 % of control
endpoint: mean survival time, dose: 150.0 mg/kg/injection, schedule: Q01DX001 (ip), vehicle: saline with Tween-80
  T/C: 96 % of control

## COCCCNC(=O)CS(=O)(=O)c1ccc(C)cc1
endpoint: mean survival time, dose: 100.0 mg/kg/injection, schedule: Q04DX003 (ip), vehicle: saline
  T/C: 102 % of control
endpoint: mean survival time, dose: 200.0 mg/kg/injection, schedule: Q04DX003 (ip), vehicle: saline
  T/C: 98 % of control
endpoint: mean survival time, dose: 400.0 mg/kg/injection, schedule: Q04DX003 (ip), vehicle: saline
  T/C: 102 % of control

## CCCCCCCCCCC(=O)CCCC
[3]
  T/C: 98 % of control
endpoint: mean survival time, dose: 200.0 mg/kg/injection, schedule: Q04DX003 (ip), vehicle: saline with Tween-80
  T/C: 94 % of control
endpoint: mean survival time, dose: 400.0 mg/kg/injection, schedule: Q04DX003 (ip), vehicle: saline with Tween-80
  T/C: 100 % of control

## CCCCC(CC)CNCC(CC)CCCC (stereo not given)
endpoint: mean survival time, dose: 50.0 mg/kg/injection, schedule: Q04DX003 (ip), vehicle: saline with Tween-80
  T/C: 93 % of control
[3]
  T/C: 91 % of control

## CC(=Nc1ccccc1)C1=C(O)C(Cc2ccc(O)c(O)c2)NC1=O (stereo not given)
[1]
  T/C: 103 % of control
[2]
  T/C: 103 % of control
[4]
  T/C: 100 % of control

## OC(CN1CCCCC1)c1ccncc1 (stereo not given)
endpoint: mean survival time, dose: 75.0 mg/kg/injection, schedule: Q01DX001 (ip), vehicle: saline
  T/C: 95 % of control
endpoint: mean survival time, dose: 150.0 mg/kg/injection, schedule: Q01DX001 (ip), vehicle: saline
  T/C: 95 % of control
endpoint: mean survival time, dose: 300.0 mg/kg/injection, schedule: Q01DX001 (ip), vehicle: saline
  T/C: 95 % of control

## COc1ccc(NC(=O)Nc2cccc([N+](=O)[O-])c2OC)cc1
[4]
  T/C: 86 % of control
endpoint: mean survival time, dose: 400.0 mg/kg/injection, schedule: Q04DX002 (ip), vehicle: saline with Tween-80
  T/C: 96 % of control
